In brackets after ≈: the same amount, converted by molar mass.
What was measured:
Assay in all cases: ≥ marks a high value that may be exact or a test limit, other limits are often not marked, values filed in µg/mL are converted to µM
Escherichia coli 55B5 = tested on: Escherichia coli 55B5
Escherichia coli UB1005 = tested on: Escherichia coli UB1005
Pseudomonas aeruginosa = tested on: Pseudomonas aeruginosa
Salmonella typhimurium = tested on: Salmonella typhimurium
Staphylococcus aureus = tested on: Staphylococcus aureus
[1] = tested on: Bacillus licheniformis X39
[2] = tested on: Escherichia coli ATCC 25922
[3] = tested on: Pseudomonas aeruginosa 1.50
[4] = tested on: Psychrobacter faecalis X29
[5] = tested on: Rhodococcus rhodochrous X15
Serratia rubidaea X01 = tested on: Serratia rubidaea X01
[6] = tested on: Staphylococcus aureus ATCC 2592
[7] = tested on: Staphylococcus carnosus KHS
[8] = tested on: Acinetobacter calcoaceticus
Bacillus cereus = tested on: Bacillus cereus
Bacillus pumilus = tested on: Bacillus pumilus
[9] = tested on: Candida albicans ATCC 2002
Shigella dysenteriae = tested on: Shigella dysenteriae
[10] = tested on: Bacillus subtilis ATCC 6633
[11] = tested on: Escherichia coli DH5alpha
[12] = tested on: Escherichia coli DSM 1103
[13] = tested on: Kocuria rhizophila DSM 348
[14] = tested on: Micrococcus luteus DSM 1790
[15] = tested on: Staphylococcus aureus ATCC 25923
[16] = tested on: Staphylococcus aureus DSM 1104
Escherichia coli 23A = tested on: Escherichia coli 23A
Escherichia coli 27A = tested on: Escherichia coli 27A
[17] = tested on: Pseudomonas aeruginosa 3A
[18] = tested on: Pseudomonas aeruginosa 7A
[19] = tested on: Staphylococcus aureus 15A
Staphylococcus aureus 6A = tested on: Staphylococcus aureus 6A
Bacillus subtilis = tested on: Bacillus subtilis
Candida glabrata 090902 = tested on: Candida glabrata 090902
[20] = tested on: Nocardia asteroides 201118
[21] = tested on: Staphylococcus aureus ATCC 43300

**Q.** With `CC[C@H](C)[C@H](NC(=O)[C@H](C)N)C(=O)N[C@@H](Cc1cnc[nH]1)C(=O)N[C@@H](CCCCN)C(=O)N[C@@H](CC(C)C)C(=O)N[C@@H](C)C(=O)N[C@@H](Cc1cnc[nH]1)C(=O)N[C@@H](CCCCN)C(=O)N[C@@H](CC(C)C)C(=O)N[C@@H](CC(C)C)C(=O)N[C@@H](CCCCN)C(=O)N[C@@H](CCCCN)C(=O)N[C@@H](CC(C)C)C(=O)N[C@@H](CC(C)C)C(=O)N[C@@H](CCCN=C(N)N)C(=O)N[C@@H](C)C(=O)N[C@H](C(=O)N[C@@H](CCCCN)C(=O)N[C@@H](CCCCN)C(=O)N[C@@H](CC(C)C)C(=O)N[C@@H](C)C(=O)N[C@@H](CC(N)=O)C(=O)O)C(C)C` [AIHKLAHKLLKKLLRAVKKLAN] as the compound, how does the MIC (Escherichia coli 55B5) read?
**A.** 2.5 µM (≈ 6.27 µg/mL)

**Q.** What about the MIC (Escherichia coli UB1005) of the same compound?
**A.** 3.1 µM (≈ 7.77 µg/mL)

**Q.** And the MIC (Pseudomonas aeruginosa)?
**A.** 4.5 µM (≈ 11.3 µg/mL)

**Q.** What about the MIC (Salmonella typhimurium) of the same compound?
**A.** 6 µM (≈ 15 µg/mL)

**Q.** What about the MIC (Staphylococcus aureus) of the same compound?
**A.** 30 µM (≈ 75.2 µg/mL)

**Q.** For `CSCC[C@H](NC(=O)CNC(=O)[C@H](C)NC(=O)[C@H](CCC(=O)O)NC(=O)[C@H](CCCCN)NC(=O)[C@H](C)NC(=O)[C@@H](NC(=O)CNC(=O)[C@H](CCCCN)NC(=O)[C@H](CC(C)C)NC(=O)[C@H](CC(C)C)NC(=O)[C@H](CC(=O)O)NC(=O)CNC(=O)[C@H](Cc1ccccc1)NC(=O)[C@H](C)NC(=O)CN)C(C)C)C(=O)N[C@@H](CCCCN)C(=O)N[C@@H](CC(C)C)C(=O)N[C@@H](CC(C)C)C(=O)N[C@@H](CC(N)=O)C(=O)N[C@@H](CCSC)C(=O)N[C@@H](C)C(=O)N[C@@H](CCC(N)=O)C(=O)N[C@H]1CSSC[C@@H](C(=O)O)NC(=O)[C@H](CCCCN)NC(=O)CNC(=O)[C@H](CO)NC(=O)[C@H](CC(C)C)NC(=O)[C@H](CCCCN)NC1=O` [GAFGDLLKGVAKEAGMKLLNMAQCKLSGKC], which MIC [1] is on record?
**A.** 8 µM (≈ 24.6 µg/mL)

**Q.** What about the MIC [2] of the same compound?
**A.** 32.5 µM (≈ 100 µg/mL)

**Q.** What about the MIC [3] of the same compound?
**A.** ≥ 65 µM

**Q.** What about the MIC [4] of the same compound?
**A.** 0.5 µM (≈ 1.54 µg/mL)

**Q.** What about the MIC [5] of the same compound?
**A.** 0.5 µM (≈ 1.54 µg/mL)

**Q.** What about the MIC (Serratia rubidaea X01) of the same compound?
**A.** ≥ 130 µM

**Q.** What about the MIC [6] of the same compound?
**A.** 2 µM (≈ 6.16 µg/mL)

**Q.** And the MIC [7]?
**A.** 2 µM (≈ 6.16 µg/mL)

**Q.** Which results are given for `CC[C@H](C)[C@H](NC(=O)CN)C(=O)N[C@@H](Cc1ccccc1)C(=O)N[C@@H](C)C(=O)N[C@@H](CC(C)C)C(=O)N[C@H](C(=O)N[C@@H](CCCCN)C(=O)N[C@H](C(=O)N[C@@H](C)C(=O)N[C@@H](C)C(=O)N[C@@H](CCCCN)C(=O)N[C@@H](Cc1ccccc1)C(=O)N[C@H](C(=O)NCC(=O)N[C@@H](CCCCN)C(=O)N[C@@H](CC(N)=O)C(=O)N[C@@H](CC(C)C)C(=O)N[C@@H](CC(C)C)C(=O)N[C@@H](CCCCN)C(=O)N[C@@H](CCC(N)=O)C(=O)N[C@@H](C)C(=O)NCC(=O)N[C@@H](CCCCN)C(=O)N[C@@H](C)C(=O)NCC(=O)N[C@@H](CC(C)C)C(=O)N[C@@H](CCC(=O)O)C(=O)N[C@@H](Cc1cnc[nH]1)C(=O)N[C@@H](CC(C)C)C(=O)N[C@@H](C)C(=O)N[C@H]1CSSC[C@@H](C(=O)O)NC(=O)[C@H](CCC(N)=O)NC(=O)[C@H](CC(N)=O)NC(=O)[C@H](CC(N)=O)NC(=O)[C@H](C)NC(=O)[C@H](CCCCN)NC1=O)C(C)C)[C@@H](C)O)[C@@H](C)CC` [GIFALIKTAAKFVGKNLLKQAGKAGLEHLACKANNQC]?
**A.** MIC [8]: 6.46 µM (≈ 25 µg/mL); MIC (Bacillus cereus): 1.94 µM (≈ 7.5 µg/mL); MIC (Bacillus pumilus): 0.646 µM (≈ 2.5 µg/mL); MIC [9]: 0.646 µM (≈ 2.5 µg/mL); MIC [2]: 3.23 µM (≈ 12.5 µg/mL); MIC (Pseudomonas aeruginosa): 12.9 µM (≈ 50 µg/mL); MIC (Shigella dysenteriae): 1.94 µM (≈ 7.5 µg/mL); MIC [6]: 0.646 µM (≈ 2.5 µg/mL)

**Q.** Which results are given for `CC[C@H](C)[C@H](NC(=O)[C@H](C)NC(=O)CNC(=O)[C@H](C)NC(=O)[C@H](CCCCN)NC(=O)[C@H](CO)NC(=O)[C@H](C)NC(=O)[C@H](CCSC)NC(=O)CN)C(=O)N[C@@H](C)C(=O)NCC(=O)N[C@@H](CCCCN)C(=O)N[C@H](C(=O)N[C@@H](C)C(=O)N[C@@H](CCCCN)C(=O)N[C@H](C(=O)N[C@@H](C)C(=O)N[C@@H](CC(C)C)C(=O)N[C@@H](CCCCN)C(=O)N[C@@H](C)C(=O)N[C@@H](CC(C)C)C(=O)O)C(C)C)[C@@H](C)CC` [GMASKAGAIAGKIAKVALKAL]?
**A.** MIC [10]: 16.2 µM (≈ 32 µg/mL); MIC [2]: 0.0305 µM (≈ 0.0601 µg/mL); MIC [11]: ≥ 65 µM; MIC [12]: ≥ 65 µM; MIC [13]: ≥ 65 µM; MIC [14]: ≥ 65 µM; MIC [15]: 5.08 µM (≈ 10 µg/mL); MIC [16]: ≥ 65 µM

**Q.** How did the MIC [9] turn out when `CC[C@H](C)[C@H](N)C(=O)N[C@@H](CC(N)=O)C(=O)N[C@@H](CCSC)C(=O)N[C@@H](CCCCN)C(=O)N[C@@H](C)C(=O)N[C@@H](CO)C(=O)N[C@@H](C)C(=O)N[C@@H](C)C(=O)N[C@H](C(=O)N[C@@H](C)C(=O)N[C@@H](CCCCN)C(=O)N[C@@H](CCCCN)C(=O)N[C@@H](CC(C)C)C(=O)N[C@@H](CC(C)C)C(=O)O)C(C)C` [INMKASAAVAKKLL] was run?
**A.** 10.3 µM (≈ 15 µg/mL)

**Q.** And the MIC (Escherichia coli 23A)?
**A.** 10.3 µM (≈ 15 µg/mL)

**Q.** And the MIC (Escherichia coli 27A)?
**A.** ≥ 41.2 µM

**Q.** And the MIC [2]?
**A.** 10.3 µM (≈ 15 µg/mL)

**Q.** And the MIC [17]?
**A.** 10.3 µM (≈ 15 µg/mL)

**Q.** What about the MIC [18] of the same compound?
**A.** ≥ 82.3 µM

**Q.** What about the MIC [19] of the same compound?
**A.** 2.57 µM (≈ 3.75 µg/mL)

**Q.** What about the MIC (Staphylococcus aureus 6A) of the same compound?
**A.** 1.3 µM (≈ 1.9 µg/mL)

**Q.** And the MIC [6]?
**A.** 2.57 µM (≈ 3.75 µg/mL)

**Q.** How did the MIC (Bacillus subtilis) turn out when `CC[C@H](C)[C@H](NC(=O)[C@H](Cc1ccccc1)NC(=O)CNC(=O)[C@H](CCCCN)NC(=O)CNC(=O)[C@H](C)NC(=O)[C@H](CC(N)=O)NC(=O)[C@H](CCCCN)NC(=O)[C@@H](NC(=O)[C@@H](NC(=O)[C@H](CCC(=O)O)NC(=O)[C@H](Cc1c[nH]c2ccccc12)NC(=O)[C@H](CC(C)C)NC(=O)[C@@H](N)CO)[C@@H](C)O)[C@@H](C)CC)C(=O)N[C@@H](CC(C)C)C(=O)N[C@@H](CC(N)=O)C(=O)N[C@H](C(=O)N[C@@H](CC(C)C)C(=O)N[C@@H](CC(=O)O)C(=O)N[C@@H](CCCCN)C(=O)N[C@H](C(=O)N[C@@H](CCCN=C(N)N)C(=O)N[C@H]1CSSC[C@@H](C(=O)N[C@@H](CCCCN)C(=O)N[C@H](C(=O)O)[C@@H](C)O)NC(=O)CNC(=O)CNC(=O)[C@H](C)NC(=O)[C@H](C(C)C)NC(=O)[C@H](CCCCN)NC1=O)[C@@H](C)CC)[C@@H](C)CC` [SLWETIKNAGKGFILNILDKIRCKVAGGCKT] was run?
**A.** 2.78 µM (≈ 9.37 µg/mL)

**Q.** And the MIC [9]?
**A.** 4.44 µM (≈ 15 µg/mL)

**Q.** What about the MIC (Candida glabrata 090902) of the same compound?
**A.** ≥ 150 µM

**Q.** And the MIC [2]?
**A.** 75 µM (≈ 253 µg/mL)

**Q.** What about the MIC [20] of the same compound?
**A.** 4.7 µM (≈ 15.9 µg/mL)

**Q.** And the MIC [21]?
**A.** 2.78 µM (≈ 9.37 µg/mL)
